What was measured:
[1] = target: Gal-3 (Homo sapiens, UniProt P17931); assay: Fluorescence anisotropy assay, inhibition of galectin / fluorescein tagged saccharide probe interaction; assay type: binding
Experimental: The affinity of Example 1-59 for galectins were determined by a fluorescence anisotropy assay where the compound was used as an inhibitor of the interaction between galectin and a fluorescein tagged saccharide probe as described Sörme, P., Kahl-Knutsson, B., Huflejt, M., Nilsson, U. J., and Leffler H. (2004) Fluorescence polarization as an analytical tool to evaluate galectin-ligand interactions. Anal. Biochem. 334: 36-47, (Sarme et al., 2004)

[2] = CACO-2 A > B permeability; assay type: in vitro ADME; details: human
Description: The compounds of the present invention are novel β-D-galactopyranose compounds that unexpectedly have shown high affinity for galectin-3 and are considered novel potent drug candidates. In addition, it is seen that with these compounds the advantage is that the pyrazole moiety A^1 results in an improved uptake over CACO-2 cells predicting high oral bioavailability after oral administration and this is supported by disclosed ADME data herein. Further compared to compounds where A^1 is a triazole moiety this improvement is significant.

[3] = Human hepatic Clint; assay type: in vitro ADME

Sequence of Gal-3 (P17931 whole entry, species assumed): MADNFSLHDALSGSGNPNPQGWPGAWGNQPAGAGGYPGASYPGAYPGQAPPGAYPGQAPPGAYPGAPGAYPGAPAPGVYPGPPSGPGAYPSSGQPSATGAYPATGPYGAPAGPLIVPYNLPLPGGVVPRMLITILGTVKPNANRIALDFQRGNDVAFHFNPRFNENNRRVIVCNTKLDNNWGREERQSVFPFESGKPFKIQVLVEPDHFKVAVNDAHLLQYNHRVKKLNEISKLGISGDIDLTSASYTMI

Row | Structure (SMILES) | Kd [1] | Papp A→B [2] | CLint scaled [3]
1 | Cc1nc([C@@H]2OC(CO)[C@H](O)C(n3cc(-c4cc(F)c(Cl)c(F)c4)cn3)C2O)n(-c2cc(Cl)cnc2C2CC2)n1 (stereo in doubt) [Example 1, 3-{5-{3-[4-(4-Chloro-3,5-difluorophenyl)-1H-1,2-pyrazol-1-yl]-3-deoxy-β-D-galactopyranosyl}-3-methyl-1H-1,2,4-triazol-1-yl}-5-chloro-2-cyclopropylpyridine] | 32 nM | 18 ×10⁻⁶ cm/s | 1.3 mL/min/kg
2 | Cc1nc([C@@H]2OC(CO)[C@H](O)C(n3cc(-c4cc(F)c(Cl)c(F)c4)cn3)C2O)n(-c2cc(Cl)ccc2C(F)(F)F)n1 (stereo in doubt) [Example 5, 1-{5-{3-[4-(4-Chloro-3,5-difluorophenyl)-1H-1,2-pyrazol-1-yl]-3-deoxy-β-D-galactopyranosyl}-3-methyl-1H-1,2,4-triazol-1-yl}-5-chloro-2-(trifluoromethyl)benzene] | 6 nM | 18 ×10⁻⁶ cm/s | 0.4 mL/min/kg
3 | Cc1nc([C@@H]2OC(CO)[C@H](O)C(n3cc(-c4cc(F)c(F)c(F)c4)cn3)C2O)n(-c2ccc3nc(C)sc3c2)n1 (stereo in doubt) [Example 8, 6-{5-{3-Deoxy-3-[4-(3,4,5-trifluorophenyl)-1H-1,2-pyrazol-1-yl]-β-D-galactopyranosyl}-3-methyl-1H-1,2,4-triazol-1-yl}-2-methylbenzothiazole] | 22 nM | 17 ×10⁻⁶ cm/s | 0.3 mL/min/kg
4 | Cc1nc([C@@H]2OC(CO)[C@H](O)C(n3cc(-c4cc(F)c(Cl)c(F)c4)cn3)C2O)n(-c2ccc3nc(C)sc3c2)n1 (stereo in doubt) [Example 9, 6-{5-{3-[4-(4-Chloro-3,5-difluorophenyl)-1H-1,2-pyrazol-1-yl]-3-deoxy-β-D-galactopyranosyl}-3-methyl-1H-1,2,4-triazol-1-yl}-2-methylbenzothiazole] | 12 nM | 20 ×10⁻⁶ cm/s | 0.6 mL/min/kg
5 | Cc1nc([C@@H]2OC(CO)[C@H](O)C(n3cc(-c4cc(F)c(F)c(F)c4)cn3)C2O)n(-c2cc(Cl)cnc2C2CC2)n1 (stereo in doubt) [Example 13, 5-Chloro-3-{5-{3-deoxy-3-[4-(3,4,5-trifluorophenyl)-1H-1,2-pyrazol-1-yl]-β-D-galactopyranosyl}-3-methyl-1H-1,2,4-triazol-1-yl}-2-cyclopropylpyridine] | 15 nM | 10 ×10⁻⁶ cm/s | 0.2 mL/min/kg
6 | COc1ccccc1-c1nn(C2C(O)[C@H](c3nc(C)nn3-c3cc(Cl)ccc3C(F)(F)F)OC(CO)[C@@H]2O)cc1-c1cc(F)c(F)c(F)c1 (stereo in doubt) [Example 52, 5-Chloro-1-{5-{3-deoxy-3-[4-(3,4,5-trifluorophenyl)-3-(2-methoxyphenyl)-1H-1,2-pyrazol-1-yl]-β-D-galactopyranosyl}-3-methyl-1H-1,2,4-triazol-1-yl}-2-(trifluoromethyl)benzene] | 20 nM |  | 
7 | Cc1nc([C@@H]2OC(CO)[C@H](O)C(n3cc(-c4cc(F)c(F)c(F)c4)c(-c4ccccc4C)n3)C2O)n(-c2cc(Cl)ccc2C(F)(F)F)n1 (stereo in doubt) [Example 53, 5-Chloro-1-{5-{3-deoxy-3-[4-(3,4,5-trifluorophenyl)-3-(2-methylphenyl)-1H-1,2-pyrazol-1-yl]-β-D-galactopyranosyl}-3-methyl-1H-1,2,4-triazol-1-yl}-2-(trifluoromethyl)benzene] | 92 nM |  | 
8 | Cc1nc([C@@H]2OC(CO)[C@H](O)C(n3cc(-c4cc(F)c(F)c(F)c4)c(-c4cccc(F)c4)n3)C2O)n(-c2cc(Cl)ccc2C(F)(F)F)n1 (stereo in doubt) [Example 54, 5-Chloro-1-{5-{3-deoxy-3-[4-(3,4,5-trifluorophenyl)-3-(3-fluorophenyl)-1H-1,2-pyrazol-1-yl]-β-D-galactopyranosyl}-3-methyl-1H-1,2,4-triazol-1-yl}-2-(trifluoromethyl)benzene] | 240 nM |  | 
9 | Cc1nc([C@@H]2OC(CO)[C@H](O)C(n3cc(-c4cc(F)c(F)c(F)c4)c(-c4ccc(F)cc4)n3)C2O)n(-c2cc(Cl)ccc2C(F)(F)F)n1 (stereo in doubt) [Example 55, 5-Chloro-1-{5-{3-deoxy-3-[4-(3,4,5-trifluorophenyl)-3-(4-fluorophenyl)-1H-1,2-pyrazol-1-yl]-β-D-galactopyranosyl}-3-methyl-1H-1,2,4-triazol-1-yl}-2-(trifluoromethyl)benzene] | 100 nM |  | 
10 | Cc1nc([C@@H]2OC(CO)[C@H](O)C(n3cc(-c4ccc(C(F)(F)F)cc4)cn3)C2O)n(-c2cc(Cl)ccc2C(F)(F)F)n1 (stereo in doubt) [Example 56, 5-Chloro-1-{5-{3-deoxy-3-{4-[4-(trifluoromethyl)phenyl]-1H-1,2-pyrazol-1-yl}-β-D-galactopyranosyl}-3-methyl-1H-1,2,4-triazol-1-yl}-2-(trifluoromethyl)benzene] | 110 nM |  | 
11 | Cc1nc([C@@H]2OC(CO)[C@H](O)C(n3cc(-c4ccc(C)c(F)c4)cn3)C2O)n(-c2cc(Cl)ccc2C(F)(F)F)n1 (stereo in doubt) [Example 57, 5-Chloro-1-{5-{3-deoxy-3-[4-(3-fluoro-4-methylphenyl)-1H-1,2-pyrazol-1-yl]-β-D-galactopyranosyl}-3-methyl-1H-1,2,4-triazol-1-yl}-2-(trifluoromethyl)benzene] | 11 nM |  | 
12 | Cc1nc([C@@H]2OC(CO)[C@H](O)C(n3cc(-c4cccc(Cl)c4)cn3)C2O)n(-c2cc(Cl)ccc2C(F)(F)F)n1 (stereo in doubt) [Example 58, 1-{5-{3-[4-(3-Chlorophenyl)-1H-1,2-pyrazol-1-yl]-3-deoxy-β-D-galactopyranosyl}-3-methyl-1H-1,2,4-triazol-1-yl}-5-chloro-2-(trifluoromethyl)benzene] | 97 nM |  | 
13 | Cc1nc([C@@H]2OC(CO)[C@H](O)C(n3cc(-c4ccc(Cl)cc4)cn3)C2O)n(-c2cc(Cl)ccc2C(F)(F)F)n1 (stereo in doubt) [Example 59, 1-{5-{3-[4-(4-Chlorophenyl)-1H-1,2-pyrazol-1-yl]-3-deoxy-β-D-galactopyranosyl}-3-methyl-1H-1,2,4-triazol-1-yl}-5-chloro-2-(trifluoromethyl)benzene] | 51 nM |  | 
14 | Cc1nc2ccc(-n3cnnc3[C@@H]3OC(CO)[C@H](O)C(n4cc(-c5cc(F)c(F)c(F)c5)cn4)[C@@H]3O)cc2s1 (stereo partly drawn) [Example 2, 6-{3-{3-Deoxy-3-[4-(3,4,5-trifluorophenyl)-1H-1,2-pyrazol-1-yl]-β-D-galactopyranosyl}-4H-1,2,4-triazol-4-yl}-2-methylbenzothiazole] | 39 nM |  | 
15 | Cc1nc([C@@H]2OC(CO)[C@H](O)C(n3cc(-c4cc(F)c(F)c(F)c4)cn3)[C@@H]2O)n(-c2cnc(C#N)c(Cl)c2)n1 (stereo partly drawn) [Example 23, 3-Chloro-2-cyano-5-{5-{3-deoxy-3-[4-(3,4,5-trifluorophenyl)-1H-1,2-pyrazol-1-yl]-β-D-galactopyranosyl}-3-methyl-1H-1,2,4-triazol-1-yl}pyridine] | 240 nM |  | 
